From patent US12667546B2, “Methods for manipulating cell state transitions in cancer” (AGENCY FOR SCIENCE, TECHNOLOGY AND RESEARCH, priority 2018, dated 2026)
Several values for one entry are separate records, joined by “and”; a condition that tells them apart may be missing. Identical values can stand only once. Counter-ions that a name gives are not always drawn. Like-named read-outs stand apart in the source and are kept apart here.

Columns and labels:
[1] = test system: NAMEC8-SERPINE1prom-Luc cells; experiment: Renilla-luciferase (constitutive CMV promoter) readout for cell numbers; assay type: cell-based, human; details: for viability at 10 µM: Homo sapiens, 72 h, read-out: % Avr Renilla from DMSO
[2] = test system: SERPINE1prom-Luc reporter in NAMEC8 cells; experiment: Dual-Glo luciferase assay of SERPINE1prom-Luc reporter (FF/Ren); assay type: cell-based, human; details: for activity at 10 µM: Homo sapiens, 72 h, read-out: Avr FF/Renilla from DMSO; for dose-dependent change of SERPINE1 promoter activity: dose response (metabolic hits 10 nM to 2 μM; epigenetic hits six concentrations)
Description: pGreenFire1-mCMV was cut using ClaI and SpeI and gel purified. Promoter sequences of genes Zeb1, Serpine1, CDH1, CD24, CD44, CD166 were amplified from human genomic DNA with pre-designed primers containing ClaI and SpeI restriction cut sites using AccuPrime Taq DNA Polymerase (Thermo Fisher Scientific). PCR products were then digested with restriction enzymes and gel-purified. Vector was ligated with PCR insert using Quick Ligase (Fermentas) and transformed into Stb12 competent cells. Colonies were picked and inoculated into TB media with ampicillin. Plasmids were then isolated using a plasmid miniprep kit (Qiagen) and sent for sequencing (1 stBASE Laboratories). After verifying the plasmid sequence, transfection into HEK293 cells was carried out to generate lentivirus. Transfection was carried out using FuGENE 6 (Promega). Viral supernatant was harvested at 24 h and 48 h. NAMEC8 cells were then infected twice with virus using polybrene ([…]) and checked for good transduction efficiency using Dual-Glo Luciferase System (Promega).
Stock plates of compound libraries were kindly prepared by GIS CHiP facility at 1 mM concentration in DMSO. NAMEC8-SERPINE1prom-Luc cells were seeded into 384 well plates at a density of 700 cells/well in a total volume of 50 μl, using an automated dispensing system (BioTek). 0.5 μl of compounds were then added to the wells the following day using a robotic pin transfer with a Bravo workstation (Agilent Technologies). Cells were then grown for 3 days and promoter-luciferase activity was measured using the Dual-Glo Luciferase System (Promega).
Assay was carried out according to manufacturer's instructions. To measure luciferase activity in 384 well plates, media was first removed from the plate. Firefly luciferase activity was determined by adding 30 μl Dual-Glo Luciferase substrate (Promega) to the wells and incubated for 10 min before measuring luminescence using a TECAN M1000 Pro plate reader. 15 μl Dual-Glo Stop & Glo substrate was then added to the wells, incubated for 10 min and measuring luminescence on the plate reader to determine Renilla luciferase activity. Promoter luciferase activity is then calculated by taking Firefly luciferase over Renilla luciferase.

[3] = primary screen, Renilla as readout for cell numbers, relative to DMSO
[4] = primary screen, NAMEC8-SERPINE1prom-Luc cells grown 3 days with compound, relative to DMSO
[5] = primary screen, […], relative to DMSO

Row | Compound | viability at 10 µM [1, 3] [%] | activity at 10 µM [2, 4] [%] | % Avr Renilla from DMSO [1, 3] | Avr FF/Renilla from DMSO [2, 4] | other results
1 | CCCn1c(=O)c2[nH]c(-c3ccc(S(=O)(=O)O)cc3)nc2n(CCC)c1=O [1,3-Dipropyl-8-p-sulfophenylxanthine] | 103 | 61 | – | – | –
2 | O=c1[nH]c(=O)n([C@H]2C[C@H](O)[C@@H](CO)O2)cc1Br [5-Bromo-2′-deoxyuridine] | 65.7 | 67 | – | – | –
3 | CCCCC[C@H](O)/C=C/[C@H]1[C@H](O)CC(=O)[C@@H]1CC(=O)CCCCC(=O)O [6-keto Prostaglandin E1] | – | – | 79.67% | 0.55 | –
4 | CCCCC/C=C\C=C1\C(=O)C[C@H](O)[C@@H]1C/C=C\CCCC(=O)O [15-deoxy-_12,14-Prostaglandin D2] | – | – | 68.09% | 0.57 | –
5 | CCCCC(C)(C)[C@H](O)/C=C/[C@H]1C(=O)C[C@H](O)[C@@H]1C/C=C\CCCC(=O)O [16,16-dimethyl Prostaglandin D2] | – | – | 52.62% | 0.48 | –
6 | O=C(O)CCC/C=C\C[C@H]1C(=O)C=C[C@@H]1/C=C/[C@@H](O)COc1ccccc1 [16-phenoxy tetranor Prostaglandin A2] | – | – | 82.64% | 0.59 | –
7 | Cc1cccc(-c2nn(C(=S)Nc3ccccc3)cc2-c2ccnc3ccccc23)n1 [A83-01] | – | – | – | – | downregulation of SERPINE1prom-Luc ([2]; positive control treatment): at least 50%
8 | CCCCCCCCc1ccc(-c2ccc(C(=O)O)cc2)cc1 [AC-55649] | – | – | 106.55% | 0.59 | –
9 | N#C/C(=C\c1ccc(O)c(O)c1)C(=O)NCc1ccccc1 [AG-490] | – | – | 64.03% | 0.47 | –
10 | O=C(Nc1cccc(C(F)(F)F)c1)Nc1cc(S(=O)(=O)NC2CC2)ccc1-c1ccsc1 [AGI-6780] | – | – | – | – | dose-dependent change of SERPINE1 promoter activity [2]: dose dependent decrease in SERPINE1 promoter activity
11 | CN(Cc1cnc2nc(N)nc(N)c2n1)c1ccc(C(=O)N[C@@H](CCC(=O)O)C(=O)O)cc1 [Abitrexate (Methotrexate), Methotrexate] | 55.6 | 56 | – | – | –
12 | C=CCc1ccccc1OCC(O)CNC(C)C (centres unmarked) [Alprenolol hydrochloride] | 90.2 | 80 | – | – | –
13 | CCCCc1oc2ccccc2c1C(=O)c1cc(I)c(OCCN(CC)CC)c(I)c1 [Amiodarone hydrochloride] | 86.9 | 59 | – | – | –
14 | S=C(NCc1ccc2c(c1)OCO2)N1CCN(c2ncnc3c2oc2ccccc23)CC1 [Amuvatinib (MP-470)] | – | – | 140.20% and 213.43% | 0.37 and 0.23 | –
15 | CN1CCc2cccc3c2[C@H]1Cc1ccc(O)c(O)c1-3 [Apomorphine hydrochloride hemihydrate] | 85.1 | 84 | – | – | –
16 | Cc1cc(Nc2ncnc3ccc(NC4=NC(C)(C)CO4)cc23)ccc1Oc1ccn2ncnc2c1 [Arry-380] | 67.3 | 73 | – | – | –
17 | C[N+]1(C)[C@@H]2CC[C@H]1C[C@@H](OC(=O)C(CO)c1ccccc1)C2 (some centres unmarked) [Atropine methyl nitrate] | 103 | 68 | – | – | –
18 | CCCCCCCCCCCCC/C=C/[C@@H](O)[C@H](CO)NC(=O)CCCCCCC [C-8 Ceramide] | – | – | 70.74% | 0.54 | –
19 | CS(=O)(=O)N1CCc2c(-c3cnc(N)nc3)nc(N3CCOCC3)nc21 [CH5132799] | 50.6 | 71 | – | – | –
20 | CC1(C(=O)O)C2CCC(O2)C1(C)C(=O)O (centres unmarked) [Cantharidic Acid] | 74.6 | – | – | – | activity at 10 µM [2, 5]: 40%
21 | NC(=O)c1ccc(-c2nc(-c3ccc4c(c3)OCCO4)c(-c3ccccn3)[nH]2)cc1 [D 4476] | – | – | 53.26% | 0.57 | –
22 | COc1cccc(Nc2c(C(N)=O)cnc3c(C)cc(S(=O)(=O)c4cccc(C(=O)N(C)C)c4)cc23)c1 [GSK256066] | – | – | – | – | dose-dependent change of SERPINE1 promoter activity [2]: dose dependent decrease in SERPINE1 promoter activity
23 | CC1=C(/C=C/C(C)=C/C=C/C(C)=C\C(=O)O)C(C)(C)CCC1 [Isotretinoin] | 84.1 | 37 | – | – | –

Row | Compound | viability at 10 µM [1, 3] [%] | activity at 10 µM [2, 4] [%] | % Avr Renilla from DMSO [1, 3] | Avr FF/Renilla from DMSO [2, 4] | other results
24 | CN([C@@H](Cc1ccc(OS(=O)(=O)c2cccc3cnccc23)cc1)C(=O)N1CCN(c2ccccc2)CC1)S(=O)(=O)c1cccc2cnccc12 [KN-62] | – | – | 67.80% | 0.43 | –
25 | COc1ccc(S(=O)(=O)N(CCO)c2ccccc2CN(C)C/C=C/c2ccc(Cl)cc2)cc1 [KN-93] | – | – | 54.45% | 0.59 | –
26 | COc1ccc(Br)cc1S(=O)(=O)NC(=O)/C=C/c1ccccc1Cc1ccc2ccccc2c1 [L-798106] | – | – | 68.99% | 0.13 | –
27 | N[C@@H](CC(=O)O)C(=O)O [L-Aspartic acid] | 99.3 | 71 | – | – | –
28 | CC1(C)CNc2cc(NC(=O)c3cccnc3NCc3ccncc3)ccc21 [Motesanib Diphosphate (AMG-706), Motesanib Diphosphate] | 50.9 | 70 | – | – | –
29 | CCN(CC)CCCCNc1ncc2cc(-c3c(Cl)cccc3Cl)c(NC(=O)NC(C)(C)C)nc2n1 [PD-161570] | – | – | 74.13% | 0.39 | –
30 | CNC(=O)c1ccc(C)c(-n2c(C)cc(OCc3ccc(F)cc3F)c(Br)c2=O)c1 [PH-797804] | 53 | 67 | – | – | –
31 | CC(=O)Nc1nc(C)c(-c2ccc(Cl)c(S(=O)(=O)NCCO)c2)s1 [PIK-93] | – | – | 75.51% | – | Avr FF/Renilla from DMSO [2, 5]: 0.72
32 | CCCCC[C@H](O)/C=C/[C@H]1C(=O)C[C@H](O)[C@@H]1C/C=C\CCCC(=O)NCCO [Prostaglandin D2 Ethanolamide] | – | – | 65.62% | 0.55 | –
33 | CCCCCC(O)/C=C/C1C(=O)CC(O)C1C/C=C\CCCC(=O)OCC(O)CO (centres unmarked) [Prostaglandin D2-1-glyceryl ester] | – | – | 58.41% | 0.59 | –
34 | CC(=O)O[C@@]12C[C@@H](C)[C@@]3(O)[C@@H](C=C(CO)C[C@]4(O)C(=O)C(C)=C[C@@H]34)[C@@H]1C2(C)C [Prostratin] | 146 | 55 | – | – | –
35 | O=C(Nc1ccc2[nH]ncc2c1)C1CCC1 [Rhodblock 6] | – | – | 89.97% | 0.87 | –
36 | CC[C@H](CO)Nc1nc(NCc2ccccc2)c2ncn(C(C)C)c2n1 [Roscovitine (Seliciclib, CYC202), Roscovitine] | 53.7 | – | – | – | activity at 10 µM [2]: 63%
37 | CCSC(=N)Nc1ccc(C(F)(F)F)cc1 [S-ethyl N-[4-(trifluoromethyl)phenyl] Isothiourea (hydrochloride)] | 76.8 | 59 | – | – | –
38 | Cn1cc(C2=C(c3ccc(Cl)cc3Cl)C(=O)NC2=O)c2ccccc21 [SB 216763] | – | – | 107.55% | 0.56 | –
39 | NC(=O)c1ccc(-c2nc(-c3ccccn3)c(-c3ccc4c(c3)OCO4)[nH]2)cc1 [SB 431542] | – | – | 51.90% | 0.50 | –
40 | Cc1cccc(-c2[nH]c(C(C)(C)C)nc2-c2ccc3nccnc3c2)n1 [SB-525334] | – | – | 51.73% | 0.37 | –
41 | O=[N+]([O-])c1ccc(CNc2nc(NCc3cccc(C(F)(F)F)c3)nc3nc[nH]c23)cc1 [TNP] | – | – | – | – | % Avr Renilla from DMSO [1]: 80.47%; Avr FF/Renilla from DMSO [2]: 0.88
42 | CCOC(=O)c1ccc(C#Cc2ccc3c(c2)C(C)(C)CCS3)nc1 [Tazarotene] | 67 | 59 | – | – | –
43 | CCO.N#CC(=C(/N)Sc1ccccc1N)/C(C#N)=C(\N)Sc1ccccc1N [U0126-EtOH] | – | – | 76.21% | 0.62 | –
44 | N#CC(=C(/N)Sc1ccccc1N)/C(C#N)=C(\N)Sc1ccccc1N [U0126] | – | – | – | – | viability at 10 µM [1]: 102%; activity at 10 µM [2]: 45%
45 | CCCCC/C=C\C/C=C\C/C=C\C/C=C\CCCC(=O)NCc1ccoc1 [UCM707] | – | – | 88.05% | – | Avr FF/Renilla from DMSO [2, 5]: 0.57
46 | CAY10587 | – | – | 72.88% | 0.56 | –
